The source of these data is patent US20220106328A1, “HETEROCYCLIC COMPOUNDS” (Hoffmann-La Roche Inc., priority 2019, published 2022).

SMILES strings stand for the structures.

The IC50 is the concentration at which inhibition is half-maximal.

The assay concerns the target T1, MAGL (Homo sapiens, UniProt Q99685).
T1 sequence (Q99685 1-303): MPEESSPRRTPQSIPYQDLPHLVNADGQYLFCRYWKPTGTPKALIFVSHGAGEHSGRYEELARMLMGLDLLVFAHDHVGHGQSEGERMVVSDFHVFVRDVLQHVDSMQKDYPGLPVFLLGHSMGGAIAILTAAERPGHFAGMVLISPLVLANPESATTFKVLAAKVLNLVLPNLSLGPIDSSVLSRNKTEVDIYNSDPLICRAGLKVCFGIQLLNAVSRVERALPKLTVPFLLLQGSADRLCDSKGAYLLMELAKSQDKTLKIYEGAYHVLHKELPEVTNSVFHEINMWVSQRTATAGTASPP
As to the kind of experiment: 2-AG assay (MAGL inhibitory activity; hydrolysis of 2-arachidonoylglycerol to arachidonic acid followed by mass spectrometry). Format: biochemical. The following applies: 8 μM 2-arachidonoylglycerol, 15 min pre-incubation, 30 min incubation at rt, RapidFire MS read-out. The protocol:
Compounds were profiled for MAGL inhibitory activity by determining the enzymatic activity by following the hydrolysis of the natural substrate 2-arachidonoylglycerol resulting in arachidonic acid, which can be followed by mass spectrometry. This assay is hereinafter abbreviated “2-AG assay”.
A C18 SPE cartridge (G9205A) was used in an ACN/water liquid setup. […] The activity of the compounds was calculated based on the ratio of intensities [arachidonic acid/d8-arachidonic acid].
Consider `O=C1CO[C@H]2CCN(C(=O)N3CCC(C(c4ccc(F)cc4)c4ccc(F)cc4)CC3)C[C@@H]2N1` (single isomer, unassigned) [Example 25, (−)- or (+)-trans-6-[4-[Bis(4-fluorophenyl)methyl]piperidine-1-carbonyl]-4,4a,5,7,8,8a-hexahydropyrido[4,3-b][1,4]oxazin-3-one], for which the IC50 is 5 nM. With `O=C1CO[C@H]2CCN(C(=O)N3CCC4(CC3)CC(Oc3ccc(C(F)(F)F)cc3F)C4)C[C@@H]2N1` (single isomer, unassigned) [Example 27, (−)- or (+)-trans-6-[2-[2-Fluoro-4-(trifluoromethyl)phenoxy]-7-azaspiro[3.5]nonane-7-carbonyl]-4,4a,5,7,8,8a-hexahydropyrido[4,3-b][1,4]oxazin-3-one], the IC50 was found to be 7 nM. The result for `O=C1CO[C@H]2CCN(C(=O)N3CC(OCc4ccc(OC(F)(F)F)cc4)C3)C[C@@H]2N1` (single isomer, unassigned) [Example 23, (−)- or (+)-trans-6-[3-[[4-(Trifluoromethoxy)phenyl]methoxy]azetidine-1-carbonyl]-4,4a,5,7,8,8a-hexahydropyrido[4,3-b][1,4]oxazin-3-one] reads 411 nM; that for `O=C1CO[C@@H]2CCN(C(=O)N3CC(c4ccc(OC(F)(F)F)c(Cl)c4)C3)C[C@H]2N1` (single isomer, unassigned) [Example 7, (+)- or (−)-trans-6-[3-[3-Chloro-4-(trifluoromethoxy)phenyl]azetidine-1-carbonyl]-4,4a,5,7,8,8a-hexahydropyrido[4,3-b][1,4]oxazin-3-one], 424 nM.

In the case of `O=C1COC2CCN(C(=O)N3CC(c4ccc(C5(C(F)(F)F)CC5)cc4)C3)CC2N1` (single isomer, unassigned) [Example 3, (+)- or (−)-trans-6-[3-[4-[1-(Trifluoromethyl)cyclopropyl]phenyl]azetidine-1-carbonyl]-4,4a,5,7,8,8a-hexahydropyrido[4,3-b][1,4]oxazin-3-one], the IC50 was determined as 95 nM. Consider `O=C1CO[C@@H]2CCN(C(=O)N3CCC4(CC3)CC(Oc3ccc(C(F)(F)F)cc3F)C4)C[C@H]2N1` (single isomer, unassigned) [Example 26, (+)- or (−)-trans-6-[2-[2-Fluoro-4-(trifluoromethyl)phenoxy]-7-azaspiro[3.5]nonane-7-carbonyl]-4,4a,5,7,8,8a-hexahydropyrido[4,3-b][1,4]oxazin-3-one], for which the IC50 was determined as 118 nM. In the case of `O=C1COC2CCN(C(=O)N3CC(OCc4ccc(C(F)(F)F)cc4F)C3)CC2N1` (single isomer, unassigned) [Example 6, (−)- or (+)-trans-6-[3-[[2-Fluoro-4-(trifluoromethyl)phenyl]methoxy]azetidine-1-carbonyl]-4,4a,5,7,8,8a-hexahydropyrido[4,3-b][1,4]oxazin-3-one], the IC50 came to 143 nM. `O=C1CO[C@H]2CCN(C(=O)N3CC(c4ccc(Oc5ccccc5)cc4)C3)C[C@@H]2N1` (single isomer, unassigned) [Example 12, (−)- or (+)-trans-6-[3-(4-Phenoxyphenyl)azetidine-1-carbonyl]-4,4a,5,7,8,8a-hexahydropyrido[4,3-b][1,4]oxazin-3-one]: the concentration for half-maximal inhibition (IC50) came out at 7 nM. The result for `O=C1CO[C@@H]2CCN(C(=O)N3CC(c4ccc(CC(F)(F)F)cc4)C3)C[C@H]2N1` (single isomer, unassigned) [Example 15, (+)- or (−)-trans-6-[3-[4-(2,2,2-Trifluoroethyl)phenyl]azetidine-1-carbonyl]-4,4a,5,7,8,8a-hexahydropyrido[4,3-b][1,4]oxazin-3-one] reads 357 nM.

With `O=C1CO[C@@H]2CCN(C(=O)N3CC4(CC(Cc5ccc(F)cc5F)C4)C3)C[C@H]2N1` (single isomer, unassigned) [Example 17, (+)- or (−)-trans-6-[6-[(2,4-Difluorophenyl)methyl]-2-azaspiro[3.3]heptane-2-carbonyl]-4,4a,5,7,8,8a-hexahydropyrido[4,3-b][1,4]oxazin-3-one], the IC50 was found to be 24 nM. The result for `O=C1CO[C@H]2CCN(C(=O)N3CC(c4ccc(OC(F)(F)F)c(Cl)c4)C3)C[C@@H]2N1` (single isomer, unassigned) [Example 8, (−)- or (+)-trans-6-[3-[3-Chloro-4-(trifluoromethoxy)phenyl]azetidine-1-carbonyl]-4,4a,5,7,8,8a-hexahydropyrido[4,3-b][1,4]oxazin-3-one] reads 56 nM; that for `O=C1CO[C@H]2CCN(C(=O)N3CCC(c4cn(CCO)c5ccc(Cl)cc45)CC3)C[C@@H]2N1` (single isomer, unassigned) [Example 30, (−)- or (+)-trans-6-[4-[5-Chloro-1-(2-hydroxyethyl)indol-3-yl]piperidine-1-carbonyl]-4,4a,5,7,8,8a-hexahydropyrido[4,3-b][1,4]oxazin-3-one], 530 nM. On to `O=C1CO[C@@H]2CCN(C(=O)N3CC(c4ccc(Oc5ccccc5)cc4)C3)C[C@H]2N1` (single isomer, unassigned) [Example 11, (+)- or (−)-trans-6-[3-(4-Phenoxyphenyl)azetidine-1-carbonyl]-4,4a,5,7,8,8a-hexahydropyrido[4,3-b][1,4]oxazin-3-one], for which the IC50 stood at 47 nM. The result for `O=C1CO[C@@H]2CCN(C(=O)N3CC(c4ccc(-c5ccc(F)cc5F)cc4)C3)C[C@H]2N1` (single isomer, unassigned) [Example 13, (+)- or (−)-trans-6-[3-[4-(2,4-Difluorophenyl)phenyl]azetidine-1-carbonyl]-4,4a,5,7,8,8a-hexahydropyrido[4,3-b][1,4]oxazin-3-one] reads 93 nM. For the compound `O=C1CO[C@@H]2CCN(C(=O)N3CCC(Cc4ccc(C(F)(F)F)cc4)CC3)C[C@H]2N1` (single isomer, unassigned) [Example 28, (+)- or (−)-trans-6-[4-[[4-(Trifluoromethyl)phenyl]methyl]piperidine-1-carbonyl]-4,4a,5,7,8,8a-hexahydropyrido[4,3-b][1,4]oxazin-3-one], the IC50 turned out to be 2560 nM. In the case of `O=C1CO[C@H]2CCN(C(=O)N3CC(OCc4ccc(C(F)(F)F)cc4Cl)C3)C[C@@H]2N1` (single isomer, unassigned) [Example 21, (−)- or (+)-trans-6-[3-[[2-Chloro-4-(trifluoromethyl)phenyl]methoxy]azetidine-1-carbonyl]-4,4a,5,7,8,8a-hexahydropyrido[4,3-b][1,4]oxazin-3-one], the IC50 worked out at 78 nM. The result for `O=C1CO[C@H]2CCN(C(=O)N3CCC(Cc4ccc(C(F)(F)F)cc4)CC3)C[C@@H]2N1` (single isomer, unassigned) [Example 29, (−)- or (+)-trans-6-[4-[[4-(Trifluoromethyl)phenyl]methyl]piperidine-1-carbonyl]-4,4a,5,7,8,8a-hexahydropyrido[4,3-b][1,4]oxazin-3-one] reads 1300 nM; that for `CC(C)(C)c1ccc(C2CN(C(=O)N3CCC4OCC(=O)NC4C3)C2)cc1` (single isomer, unassigned) [Example 2, (−)- or (+)-trans-6-[3-(4-tert-Butylphenyl)azetidine-1-carbonyl]-4,4a,5,7,8,8a-hexahydropyrido[4,3-b][1,4]oxazin-3-one], 39 nM.
